Where two headings read alike, the source gives them in different places. One block for each compound: values may come before it.
Experiments:
[1] = cited from earlier work
[2] = Adapalene oleyl ester dissolved in squalane (premix properties); type: physicochemical; settings: for physical form of the premix in squalane: 20% by weight in squalane
Description: The adapalene ester can be formulated in a premix composition with a non-polar lipophilic carrier at even higher concentrations of the adapalene ester. Typically, the concentration of the adapalene ester in the premix composition will be at least about 10% by weight, and the weight ratio of adapalene ester to lipophilic carrier is from about 1:9 to about 3:7. The premix composition may in the form of a homogeneous liquid solution or single phase amorphous solid.
Adapalene oleyl ester was dissolved in squalane at a concentration of 20% by weight. […] Rather, the entire premix mass formed a soft amorphous solid paste. The concentrated 20% adapalene oleyl ester in squalane remains a single homogenous soft solid paste with a melting temperature range of 30-35° C. This is a suitable temperature range for use in the manufacturing of finished cosmetics, which are usually manufactured at 30-80° C. This 20% composition can itself melt when in contact with the skin (33° C.). A combination of adapalene oleyl ester with squalane at high concentration, minimum 20%, provides an advantageous skin beauty treatment that can target acne prone skin with 20% or more adapalene ester, which is not possible with highly insoluble pure adapalene.

[3] = Dissolution of lauryl adapalene in MCT oil (caprylic/capric triglyceride) and persistence of the solution; type: physicochemical
Method: Approximately 5 grams of lauryl adapalene solids were dissolved in 95 grams of liquid MCT oil (caprylic/capric triglyceride), by heating the mixture to 60° C. for fifteen minutes.

Structure (SMILES): COc1ccc(-c2ccc3cc(C(=O)O)ccc3c2)cc1C12CC3CC(CC(C3)C1)C2 [Adapalene, 6-(3-(1-adamantyl)-4-methoxyphenyl)-2-naphthoic acid]
solubility in ethanol [1]: sparingly soluble | solubility in oil or water [1]: not oil or water soluble | solubility in oil or water ([1]; listed as adapalene): insoluble in oil or water

physical form of the premix in squalane [2]: formed a homogenous amorphous solid | physical form of the premix in squalane ([2]; listed as adapalene C18-1 ester): forms a homogenous amorphous solid | concentration dissolved in squalane ([2]; squalane premix): 20 % by weight
Structure (SMILES): CCCCCCCC/C=C\CCCCCCCCOC(=O)c1ccc2cc(-c3ccc(OC)c(C45CC6CC(CC(C6)C4)C5)c3)ccc2c1 [Adapalene oleyl ester, adapalene oleyl ester]

time the solution remained in liquid form ([3]; 5% wt/wt solution in MCT oil, room temperature): more than one week | concentration of active agent dissolved in liquid MCT oil ([3]; 5 g solids in 95 g MCT oil, heated to 60° C. for fifteen minutes): 5 % wt/wt
Structure (SMILES): CCCCCCCCCCCCOC(=O)c1ccc2cc(-c3ccc(OC)c(C45CC6CC(CC(C6)C4)C5)c3)ccc2c1 [lauryl adapalene]

Reference: patent US12133907B2, “Lipophilic third generation retinoid” (Actera Ingredients, Inc., priority 2021, dated 2024)
